The values that follow come from article PMC5859250, “Contribution of transformation products towards the total herbicide toxicity to tropical marine organisms” (Scientific Reports, 2018).

Series [1] deals with Dunaliella sp. As to the kind of experiment: Microalgal PAM fluorometry assay, inhibition of ∆F/Fm′ (24 h, 96-well plate). The series is classed as cell-based. To be noted: for LOEC, effect on ∆F/Fm′ / NOEC, effect on ∆F/Fm′: pure transformation product, ANOVA p < 0.05. From the text:
Microalgae play a critical role in the marine food web and have been used in a number of sensitive assays for the assessment of toxicity of both herbicides and their transformation products[13],[16],[60]. High throughput 96 well plate designs allow for increased replication and a wide range of concentrations especially when paired with pulse amplitude modulation (PAM) fluorometry[50],[61]. PAM fluorometry measures chlorophyll fluorescence and can be used to calculate inhibitions of effective quantum yield ∆F/Fm′, which is proportional to reduced photosynthetic efficiency[62] and growth in microalgae[63] and can be plotted against toxicant concentrations to derive concentrations that inhibit ∆F/Fm′ by 10, 20 and 50% (IC10, IC20 and IC50). In the present study the green algae (Dunaliella sp.) and coral symbiont (Symbiodinium sp.) were exposed to herbicides and aged herbicide solutions for 24 h in a 96-well plate format. A Maxi-Imaging-PAM (I-PAM) (Walz, GmbH Germany) was used to measure inhibition of ∆F/Fm′ using settings provided previously[36] and below.
Symbiodinium cells were isolated from coral by air blasting branches of Acropora tenuis colonies collected (collected under the permit G10-33440.1) at 2–5 m depth in Nelly Bay, Magnetic Island, GBR[36]. Symbiodinium cells were inoculated into sterile IMK growing media, the culture purified, DNA extracted, and Clade C1 identified as published previously[64],[65]. Cultures were maintained at 26 °C, 60 µE PAR, 14:10 light:dark photoperiod inside environmental chambers (Steridium e500). The Dunaliella sp. (CS-353) (Chlorophyceae) was obtained from the CSIRO Collection of Living Microalgae (CCLM). The algae was subcultured and grown in F2 media. For the toxicology assays, an exponentially growing culture was employed[63] and density adjusted by hemocytometry under 10× magnification. Day 7 sub-cultures were used throughout the experiment.
Herbicide solutions were delivered into each treatment plate using a Perkin Elmer Janus liquid handling system. Each well of the black 96-well plates (Perkin Elmer) received 100 µl herbicide solution as well as 100 µl of algal suspension (added via multi-channel pipette) and the solution was gently mixed. […] Each plate included a 3 µg l^−1 positive diuron control (n = 4) to confirm consistent sensitivities among the replicate algal subcultures. Treatments positions were randomised across the plates in duplicate[50],[61],[66]. Symbiodinium culture plates were incubated over a 12:12 h light:dark cycle at 26 °C and 60–70 µmol photons m^−2 s^−1 and Dunaliella sp. Plates incubated at: 26 °C and 130 µmol photons m^−2 s^−1. Microalgae were exposed for 24 h prior to PAM measurements. Samples were subjected to the 50 µmol photons m^−2 s^−1 actinic light for 1 min prior to measurement in the Maxi-IPAM (Actinic light = 1, ML = 10, ML frequency = 8, gain = 2 and damping = 1).
(§1) The model was constrained by applying a lower limit of 0% inhibition and all curves were tested for normality of the residuals and a replicate test was applied to assess the goodness of fit[36]. The probability that ICX values generated by the logistic curves were statistically different between parent and aged herbicide solutions was tested by applying the F test in Graph Pad Prism v6. ICXs were considered different when p < 0.05. Where inhibition data could not be fitted to logistic curves, one-way analysis of variance (ANOVA) was performed to identify treatments which caused significant (p < 0.05) inhibition comparison with control treatments (NCSS v9, Utah, USA). The larval prawn experimental data was arcsine square root transformed prior to statistical analysis.

The subject of series [2] is prawn (Penaeus monodon) larvae. As to the kind of experiment: Prawn larvae assay, metamorphosis of nauplii into protozoea (24 h static). Type of series: in vivo. As to the method:
The giant tiger prawn (Penaeus monodon) can be found throughout the tropical Indo-Pacific region and can be obtained from aquaculture facilities and has a well-described life cycle. The aim of the larval prawn assay was to determine whether the herbicides and transformation products inhibit early naupliar development. Prawn eggs hatch into their first larval stage (nauplii), typically 12–15 h after spawning. During development the nauplii are lecithotrophic, and over the course of the next 36 h, nauplii pass through 6 sub-stages before metamorphosing into protozoae[67],[68].
Freshly hatched nauplii were harvested by light attraction over 30 min, and washed and aerated for 10 min with seawater, and transported to AIMS in Townsville, Queensland. […] The toxicity assays were performed in incubator shakers (set to 30 °C) under very low light and with gentle shaking to prevent individuals adhering to the side of experimental containers.
The larval stock was gently concentrated via reverse-gravity filtration to a higher density before dispensing 8–10 individuals per 20 ml glass scintillation vials. Additional positive control treatments in the form of 4 concentrations of copper II chloride solution (2 to 900 µg l^−1 Cu), were included for test validation. The static assay was terminated after 24 h and 10% seawater formalin was added as a preservative for later microscopy. Metamorphosis was considered successful when nauplii had developed into protozoea.
as §1

Series [3] has as its system Navicula sp. The arrangement: method as in PMID 20800855. The conditions noted are these: cited from earlier work.
Series [4] relates to Nephroselmis pyriformis. The arrangement: method as in PMID 20800855. The conditions noted are these: cited from earlier work.
Series [5] deals with Phaeodactylum tricornutum. The arrangement: method as in PMID 20800855. The conditions noted are these: cited from earlier work.
Series [6] deals with Cylindrotheca closterium. The arrangement: method as in PMID 20800855. To be noted: cited from earlier work.
The test system of series [7] is Hyalella azteca. The arrangement: method as in PMID 19533344. To be noted: cited from earlier work.
Series [8] has as its system Diporeia spp. The arrangement: method as in PMID 19533344. To be noted: cited from earlier work.
Series [9] concerns Brachionus plicatilis. The arrangement: method as in PMID 1722733. The conditions noted are these: cited from earlier work.
Series [10] deals with Brachionus calyciflorus. The arrangement: method as in PMID 1722733. The conditions noted are these: cited from earlier work.
The mark [11] stands for this setting: Penaeus monodon (giant tiger prawn), in vivo, 24 h.
Setting [12] is: 24 h, vs solvent control, ANOVA p < 0.05, aged solutions as concentration of parent herbicide.

What is called IC10 is the point of the concentration-response curve where the effect stands at 10%.

In brackets after ≈: the same amount, converted by molar mass. Entries after “also recorded” stand apart in the source; their conditions may differ.

Turning to `CC(C)Nc1nc(N)nc(Cl)n1` [DEA, desethylatrazine], the IC20 in [1] (24 h, read-out: IC20 parent (inhibition of ∆F/Fm′ by 20%)) came out at 0.31 µg/mL (≈ 1.65 µM). For the same molecule, in series [1] (Dunaliella sp., 24 h, pure compound), the “IC10 parent (inhibition of ∆F/Fm′ by 10%)” value was 157 (142–173) µg l^−1. Further, the “Inhibition of ∆F/Fm′” value in series [1] (Dunaliella sp., evident at 56 µg l^−1) is 9–35%. Moreover, in [1] (Dunaliella sp.), the “LOEC, effect on ∆F/Fm′” value came to 55.63 µg/L. For the same molecule, the “NOEC, effect on ∆F/Fm′” value in [1] (Dunaliella sp.) is 33.30 µg/L. Also, the “LOEC, prawn larval metamorphosis” value in series [2] (setting [11]) is 3.8 µg/L. Further, in series [2] (in vivo), the “Effect on prawn larval metamorphosis (in words)” value is “significantly inhibiting metamorphosis at all concentrations tested”. Also, the 10% effect concentration (IC10) in series [3] was 0.111 µg/mL (≈ 0.592 µM); in series [4] it was 0.0266 µg/mL (≈ 0.142 µM); in series [5], 0.046 µg/mL (≈ 0.245 µM); in series [6] it was 0.102 µg/mL (≈ 0.544 µM).

As for `CCNc1nc(N)nc(Cl)n1` [DIA, desisopropylatrazine], in series [1] (Dunaliella sp., 458 µg l^−1, significant (ANOVA, p < 0.05)), the “Inhibition of ∆F/Fm′” value was less than 8%. The “LOEC, effect on ∆F/Fm′” value in [1] (Dunaliella sp.) came out at 458.31 µg/L. The “NOEC, effect on ∆F/Fm′” value in [1] (Dunaliella sp.) was determined as 148.97 µg/L. In series [2] (setting [11]), the “LOEC, prawn larval metamorphosis” value stood at 3.5 µg/L. In series [2] (in vivo), the “Effect on prawn larval metamorphosis (in words)” value is given as “significantly inhibiting metamorphosis at all concentrations tested”. The “96-hour LC50” value in series [7] and in series [8] was greater than 3 µg/mL throughout.

In the case of `Nc1ccc(Cl)c(Cl)c1` [3,4-DCA, 3,4-dichloroaniline], in series [1] (Dunaliella sp., concentrations up to 273 µg l^−1), the “Inhibition of ∆F/Fm′ (in words)” value is recorded as “no significant inhibition; also recorded: did not inhibit ∆F/Fm′”. Moreover, in [1] (Dunaliella sp.), the “LOEC, effect on ∆F/Fm′” value was greater than 273.41 µg/L and the “NOEC, effect on ∆F/Fm′” value came to 273.41 µg/L. Further, in series [2] (setting [12]), the “LOEC, prawn larval metamorphosis” value was determined as 188 µg/L and the “NOEC, prawn larval metamorphosis” value came out at 54 µg/L. Besides, the LC50 in [9] is on record as ~ 60 mg l^−1. For the same molecule, the LC50 in [10] is on record as ~ 60 mg l^−1.
